In patent EP0416393A1, “Peptidyl difluorodiol renin inhibitors” (ABBOTT LABORATORIES, priority 1989, dated 1991):
pIC50: −log10 of the molar value. Values belong to the compound of their own block, whether it stands above or below them.

Tests used:
[1] = biological target: T1, human renal renin (Homo sapiens, UniProt P00797); assay: Inhibition of human renal renin with human angiotensinogen substrate; angiotensin I formed measured by radioimmunoassay; type: biochemical; conditions: 37 degrees C, pH 6.0; read-out: IC₅₀
T1 construct: human renal renin, free from acid proteolytic activity; from tissue; host or cells: human kidney (concluded from the word 'renal')
T1 sequence (P00797 67-406): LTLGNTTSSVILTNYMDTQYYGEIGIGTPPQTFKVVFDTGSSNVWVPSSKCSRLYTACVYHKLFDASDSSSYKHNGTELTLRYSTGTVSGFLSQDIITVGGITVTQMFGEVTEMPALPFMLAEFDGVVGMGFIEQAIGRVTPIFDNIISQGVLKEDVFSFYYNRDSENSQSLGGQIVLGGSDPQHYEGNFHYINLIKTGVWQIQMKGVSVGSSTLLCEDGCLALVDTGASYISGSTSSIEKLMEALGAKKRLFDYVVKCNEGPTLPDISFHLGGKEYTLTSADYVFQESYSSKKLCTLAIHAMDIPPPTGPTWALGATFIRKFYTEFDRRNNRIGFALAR
Description: At the end of the incubation, the amount of angiotensin I formed is measured by radioimmunoassay and the molar concentration required to cause 50% inhibition, expressed as the IC₅₀ is calculated. […]

[2] = tested on: male cynomolgus monkeys (M. fascicularis); assay: In vivo intraduodenal activity: blood pressure in salt-depleted, anesthetized monkeys; conditions: 1.0 mg/kg intraduodenal
Description: Intraduodenal activity for the resultant compound from Example 105 was determined at 1.0 mg/kg in male cynomolgus monkeys (M. fascicularis) weighing between 3 and 5 kg. The monkeys were fed a low-salt chow and fresh fruit diet and treated twice with furosemide (5 mg/kg, po), 1 week and 1 day before the experiment. Following this regimen renders the monkeys in a salt-depleted state, characterized by normal base-line blood pressures but elevated plasma renin activities. The monkeys were fasted overnight and studied under anesthesia on the day of the experiment (sodium pentobarbitol, 15 mg/kg bolus + 0.10 mg/kg/min maintenance iv infusion). A femoral artery was catherterized for the direct and continuous measurement of blood pressure (Grass Pressure Transducer Model P23dB and Graph Polygraph Model 7). The compound was tested for intraduodenal activity via a catheter placed directly into the proximal segment of the duodenum following a laparotomy. Each monkey received only one dose of compound.

pIC50 [1]: 9.19
Compound: CC(C)C[C@H](NC(=O)[C@H](Cc1ccccc1)NC(=O)OC(C)(C)C)C(=O)N[C@@H](CC1CCCCC1)[C@@H](O)C(F)(F)[C@H](O)C(C)C [Example 60, Boc-Phe-Leu amide of 2(S)-Amino-1-cyclohexyl-4,4-difluoro-3(R),5(R)dihydroxy-6-methylheptane]

pIC50 [1]: 7.66
Compound: CC(C)CC(NC(=O)C(Cc1ccccc1)NC(=O)OC(C)(C)C)C(=O)NC(CC1CCCCC1)C(O)C(F)(F)C(O)C(C)C [Example 61, Boc-Phe-Leu amide of 2(S)-Amino-1-cyclohexyl-4,4-difluoro-3(R),5(S)-dihydroxy-6-methylheptane]

pIC50 [1]: 8.92
Compound: CC(C)C(O)C(F)(F)C(O)C(CC1CCCCC1)NC(=O)C(Cc1c[nH]cn1)NC(=O)C(CC(=O)N1CCOCC1)Cc1cccc2ccccc12 [Example 86, 2(R,S)-(4-morpholinylcarbonylmethyl)-3-(1′-naphthyl)-propionic acid amide of His-2(S)-amino-1-cyclohexyl-4,4-difluoro-3(R),5(R)-dihydroxy-6-methylheptane]

pIC50 [1]: 8.28
Compound: CC(C)C(O)C(F)(F)C(O)C(CC1CCCCC1)NC(=O)C(Cc1c[nH]cn1)NC(=O)C(=Cc1ccccc1)CC(=O)N1CCOCC1 [Example 87, (E)-2-((4-Morpholinylcarbonyl)methyl)cinnamic acid amide of His-2(S)-amino-1-cyclohexyl-4,4-difluoro-3(R),5(R)-dihydroxy-6-methylheptane]

pIC50 [1]: 9.16
Compound: CC(C)CC(NC(=O)C(Cc1ccccc1)NC(=O)OC(C)(C)C)C(=O)NC(CC1CCCCC1)C(=O)C(F)(F)C(=O)C(C)C [Example 98, Boc-Phe-Leu amide of 2(S)-Amino-1-cyclohexyl-4,4-difluoro-3,5-dioxo-6-methylheptane]

pIC50 [1]: 8.96
Compound: Cbz((β,β-di-Me)-β-Ala)-Phe-His amide of 2(S)-Amino-1-cyclohexyl-4,4-difluoro-3(R),5(R)-dihydroxy-6-methylheptane [Example 79]

Continued, compound first:

Compound: CC(C)[C@@H](O)C(F)(F)[C@H](O)[C@H](CC1CCCCC1)NC(=O)[C@H](Cc1c[nH]cn1)NC(=O)[C@H](Cc1ccccc1)NC(=O)OC(C)(C)C [Example 77, Boc-Phe-His-amide of 2(S)-Amino-1-cyclohexyl-4,4-difluoro-3(R),5(R)-dihydroxy-6-methylheptane]
pIC50 [1]: 8.92

Compound: CC(O)C(F)(F)C(O)C(CC1CCCCC1)NC(=O)C(Cc1c[nH]cn1)NC(=O)C(Cc1ccccc1)NC(=O)OC(C)(C)C [Example 78, Boc-Phe-His amide of 2(S)-Amino-1-cyclohexyl-4,4-difluoro-3(R),5(R,S)-dihydroxyhexane]
pIC50 [1]: 8.60

Compound: CC(C)[C@@H](O)C(F)(F)[C@H](O)[C@H](CC1CCCCC1)NC(=O)C(Cc1cnc[nH]1)NC(=O)C(Cc1ccc(O)cc1)N(C)C(=O)CC(C)(C)NC(=O)OCc1ccccc1 (stereo partly drawn) [Example 80, Cbz((β,β-di-Me)-β-Ala)-(Me)Tyr-His amide of 2(S)-Amino-1-cyclohexyl-4,4-difluoro-3(R),5(R)-dihydroxy-6-methylheptane]
pIC50 [1]: 9.00

Compound: CC(C)[C@@H](O)C(F)(F)[C@H](O)[C@H](CC1CCCCC1)NC(=O)[C@H](Cc1c[nH]cn1)NC(=O)[C@@H](CC(=O)N1CCOCC1)Cc1ccccc1 [Example 83, 2(R)-2-Benzyl-3-Morpholinocarbonylpropionic acid amide of His-2(S)-Amino-1-cyclohexyl-4,4-difluoro-3(R),5(R)-dihydroxy-6-methylheptane]
pIC50 [1]: 8.82

Compound: CC(C)[C@@H](O)C(F)(F)[C@H](O)[C@H](CC1CCCCC1)NC(=O)[C@H](Cc1cscn1)NC(=O)[C@@H](CC(=O)N1CCN(C)CC1)Cc1ccccc1 [Example 93, 2(R)-2-Benzyl-3(4-methylpiperazine-1-ylcarbonyl)propionic acid amide of L-(4-thiazolyl)alamine-2(S) amino-1-cyclohexyl-4,4-difluoro-3(R),5(R)-dihydroxy-6-methylheptane]
pIC50 [1]: 8.82

Compound: CC(C)[C@@H](O)C(F)(F)[C@H](O)[C@H](CC1CCCCC1)NC(=O)[C@H](Cc1cscn1)NC(=O)[C@@H](CC(=O)N(C)CCn1cccn1)Cc1ccccc1 [Example 105, (2R)-2-Benzyl-3-[(2-pyrazol-1-ylethyl)methylaminocarbonyl]propionic acid amide of L-(4-thiazolyl)alanine-2(S)-amino-1-cyclohexyl-4,4-difluoro-3(R),5(R)-dihydroxy-6-methylheptane]
pIC50 [1]: 9.46
MBP (Mean blood pressure) ([2]; Monkey A, Time 0 min): 85 mm Hg
MBP (Mean blood pressure) ([2]; Monkey A, Time 5 min): 85 mm Hg
MBP (Mean blood pressure) ([2]; Monkey A, Time 10 min): 74 mm Hg
MBP (Mean blood pressure) ([2]; Monkey A, Time 15 min): 69 mm Hg
MBP (Mean blood pressure) ([2]; Monkey A, Time 20 min): 65 mm Hg
MBP (Mean blood pressure) ([2]; Monkey A, Time 25 min): 67 mm Hg
MBP (Mean blood pressure) ([2]; Monkey A, Time 30 min): 70 mm Hg
MBP (Mean blood pressure) ([2]; Monkey A, Time 35 min): 71 mm Hg
MBP (Mean blood pressure) ([2]; Monkey A, Time 40 min): 74 mm Hg
MBP (Mean blood pressure) ([2]; Monkey A, Time 45 min): 74 mm Hg
MBP (Mean blood pressure) ([2]; Monkey A, Time 50 min): 76 mm Hg
MBP (Mean blood pressure) ([2]; Monkey A, Time 55 min): 77 mm Hg
MBP (Mean blood pressure) ([2]; Monkey A, Time 60 min): 79 mm Hg
MBP (Mean blood pressure) ([2]; Monkey A, Time 65 min): 79 mm Hg
MBP (Mean blood pressure) ([2]; Monkey A, Time 70 min): 79 mm Hg
MBP (Mean blood pressure) ([2]; Monkey A, Time 75 min): 80 mm Hg
MBP (Mean blood pressure) ([2]; Monkey A, Time 80 min): 79 mm Hg
MBP (Mean blood pressure) ([2]; Monkey A, Time 85 min): 80 mm Hg
MBP (Mean blood pressure) ([2]; Monkey A, Time 90 min): 80 mm Hg
MBP (Mean blood pressure) ([2]; Monkey A, Time 95 min): 81 mm Hg
MBP (Mean blood pressure) ([2]; Monkey A, Time 100 min): 82 mm Hg
MBP (Mean blood pressure) ([2]; Monkey A, Time 105 min): 83 mm Hg
MBP (Mean blood pressure) ([2]; Monkey A, Time 109 min): 81 mm Hg
MBP (Mean blood pressure) ([2]; Monkey A, Time 114 min): 81 mm Hg
MBP (Mean blood pressure) ([2]; Monkey A, Time 119 min): 81 mm Hg
MBP (Mean blood pressure) ([2]; Monkey B, Time 0 min): 89 mm Hg
MBP (Mean blood pressure) ([2]; Monkey B, Time 5 min): 88 mm Hg
MBP (Mean blood pressure) ([2]; Monkey B, Time 10 min): 76 mm Hg
MBP (Mean blood pressure) ([2]; Monkey B, Time 15 min): 79 mm Hg
MBP (Mean blood pressure) ([2]; Monkey B, Time 20 min): 75 mm Hg
MBP (Mean blood pressure) ([2]; Monkey B, Time 25 min): 74 mm Hg
MBP (Mean blood pressure) ([2]; Monkey B, Time 30 min): 75 mm Hg
MBP (Mean blood pressure) ([2]; Monkey B, Time 35 min): 78 mm Hg
MBP (Mean blood pressure) ([2]; Monkey B, Time 40 min): 83 mm Hg
MBP (Mean blood pressure) ([2]; Monkey B, Time 44 min): 83 mm Hg
MBP (Mean blood pressure) ([2]; Monkey B, Time 49 min): 82 mm Hg
MBP (Mean blood pressure) ([2]; Monkey B, Time 54 min): 83 mm Hg
MBP (Mean blood pressure) ([2]; Monkey B, Time 59 min): 86 mm Hg
MBP (Mean blood pressure) ([2]; Monkey B, Time 64 min): 83 mm Hg
MBP (Mean blood pressure) ([2]; Monkey B, Time 69 min): 86 mm Hg
MBP (Mean blood pressure) ([2]; Monkey B, Time 74 min): 87 mm Hg
MBP (Mean blood pressure) ([2]; Monkey B, Time 79 min): 89 mm Hg
MBP (Mean blood pressure) ([2]; Monkey B, Time 84 min): 87 mm Hg
MBP (Mean blood pressure) ([2]; Monkey B, Time 89 min): 92 mm Hg
MBP (Mean blood pressure) ([2]; Monkey B, Time 94 min): 86 mm Hg
MBP (Mean blood pressure) ([2]; Monkey B, Time 99 min): 90 mm Hg
MBP (Mean blood pressure) ([2]; Monkey B, Time 104 min): 91 mm Hg
MBP (Mean blood pressure) ([2]; Monkey B, Time 109 min): 90 mm Hg
MBP (Mean blood pressure) ([2]; Monkey B, Time 114 min): 92 mm Hg
MBP (Mean blood pressure) ([2]; Monkey B, Time 119 min): 92 mm Hg
